Earlier results in patent US20220401441A1, “PHARMACEUTICAL COMPOSITION COMPRISING SELEXIPAG” (ACTELION PHARMACEUTICALS LTD, priority 2019, published 2022).

Test system: patients with pulmonary arterial hypertension
Settings: selexipag versus placebo

CC(C)N(CCCCOCC(=O)NS(C)(=O)=O)c1cnc(-c2ccccc2)c(-c2ccccc2)n1 [selexipag, 2-{4-[N-(5,6-diphenylpyrazin-2-yl)-N-isopropylamino]butyloxy}-N-(methylsulfonyl)acetamide]
risk of the primary composite end point of death or a complication related to pulmonary arterial hypertension: significantly lower
